Assay results from ChEMBL document CHEMBL3751819, “Navigating into the chemical space between MGCD0103 and SAHA: novel histone deacetylase inhibitors as a promising lead” (Medchemcomm, 2015).
Each block holds one compound with its values, some of them ahead of it. Activity calls are given as the source filed them. The rule behind the calls is not given here.

Key:
[1] = tested on: A549; assay: Antiproliferative activity against human A549 cells assessed as reduction in cell viability after 24 hrs by MTT assay; type: functional, cell-based; conditions: A549, 24 h
[2] = tested on: A549; assay: Antiproliferative activity against human A549 cells assessed as reduction in cell viability after 48 hrs by MTT assay; type: functional, cell-based; conditions: A549, 48 h
[3] = tested on: A549; assay: Antiproliferative activity against human A549 cells assessed as reduction in cell viability after 72 hrs by MTT assay; type: functional, cell-based; conditions: A549, 72 h
[4] = tested on: HeLa; assay: Antiproliferative activity against human HeLa cells assessed as reduction in cell viability after 24 hrs by MTT assay; type: functional, cell-based
[5] = tested on: HeLa; assay: Antiproliferative activity against human HeLa cells assessed as reduction in cell viability after 48 hrs by MTT assay; type: functional, cell-based
[6] = tested on: HeLa; assay: Antiproliferative activity against human HeLa cells assessed as reduction in cell viability after 72 hrs by MTT assay; type: functional, cell-based
[7] = tested on: HepG2; assay: Antiproliferative activity against human HepG2 cells assessed as reduction in cell viability after 24 hrs by MTT assay; type: functional, cell-based; conditions: HepG2, 24 h
[8] = tested on: HepG2; assay: Antiproliferative activity against human HepG2 cells assessed as reduction in cell viability after 48 hrs by MTT assay; type: functional, cell-based; conditions: HepG2, 48 h
[9] = tested on: HepG2; assay: Antiproliferative activity against human HepG2 cells assessed as reduction in cell viability after 72 hrs by MTT assay; type: functional, cell-based; conditions: HepG2, 72 h
[10] = Antiproliferative activity against human HCT116 cells assessed as reduction in cell viability after 24 hrs by MTT assay; type: functional, cell-based; conditions: HCT-116, 24 h
[11] = Antiproliferative activity against human HCT116 cells assessed as reduction in cell viability after 48 hrs by MTT assay; type: functional, cell-based; conditions: HCT-116, 48 h
[12] = Antiproliferative activity against human HCT116 cells assessed as reduction in cell viability after 72 hrs by MTT assay; type: functional, cell-based; conditions: HCT-116, 72 h
[13] = tested on: MCF7; assay: Antiproliferative activity against human MCF7 cells assessed as reduction in cell viability after 24 hrs by MTT assay; type: functional, cell-based; conditions: MCF7, 24 h
[14] = tested on: MCF7; assay: Antiproliferative activity against human MCF7 cells assessed as reduction in cell viability after 48 hrs by MTT assay; type: functional, cell-based; conditions: MCF7, 48 h
[15] = tested on: MCF7; assay: Antiproliferative activity against human MCF7 cells assessed as reduction in cell viability after 72 hrs by MTT assay; type: functional, cell-based; conditions: MCF7, 72 h
[16] = tested on: HeLa; assay: Induction of apoptosis in human HeLa cells assessed as viable cells at 1.25 uM after 48 hrs by annexin-V-FITC/propidium iodide staining based flow cytometry (reference value: 88.6%); type: functional
[17] = tested on: HeLa; assay: Induction of apoptosis in human HeLa cells assessed as early apoptotic cells at 1.25 uM after 48 hrs by annexin-V-FITC/propidium iodide staining based flow cytometry (reference value: 1.4%); type: functional
[18] = tested on: HeLa; assay: Induction of apoptosis in human HeLa cells assessed as late apoptotic cells at 1.25 uM after 48 hrs by annexin-V-FITC/propidium iodide staining based flow cytometry (reference value: 9.3%); type: functional
[19] = tested on: HeLa; assay: Induction of apoptosis in human HeLa cells assessed as necrotic cells at 1.25 uM after 48 hrs by annexin-V-FITC/propidium iodide staining based flow cytometry (reference value: 0.693%); type: functional
[20] = tested on: HeLa; assay: Induction of apoptosis in human HeLa cells assessed as viable cells at 2.5 uM after 48 hrs by annexin-V-FITC/propidium iodide staining based flow cytometry (reference value: 88.6%); type: functional
[21] = tested on: HeLa; assay: Induction of apoptosis in human HeLa cells assessed as early apoptotic cells at 2.5 uM after 48 hrs by annexin-V-FITC/propidium iodide staining based flow cytometry (reference value: 1.4%); type: functional
[22] = tested on: HeLa; assay: Induction of apoptosis in human HeLa cells assessed as late apoptotic cells at 2.5 uM after 48 hrs by annexin-V-FITC/propidium iodide staining based flow cytometry (reference value: 9.3%); type: functional
[23] = tested on: HeLa; assay: Induction of apoptosis in human HeLa cells assessed as necrotic cells at 2.5 uM after 48 hrs by annexin-V-FITC/propidium iodide staining based flow cytometry (reference value: 0.693%); type: functional
[24] = tested on: HeLa; assay: Induction of apoptosis in human HeLa cells assessed as viable cells at 5 uM after 48 hrs by annexin-V-FITC/propidium iodide staining based flow cytometry (reference value: 88.6%); type: functional
[25] = tested on: HeLa; assay: Induction of apoptosis in human HeLa cells assessed as early apoptotic cells at 5 uM after 48 hrs by annexin-V-FITC/propidium iodide staining based flow cytometry (reference value: 1.4%); type: functional
[26] = tested on: HeLa; assay: Induction of apoptosis in human HeLa cells assessed as late apoptotic cells at 5 uM after 48 hrs by annexin-V-FITC/propidium iodide staining based flow cytometry (reference value: 9.3%); type: functional
[27] = tested on: HeLa; assay: Induction of apoptosis in human HeLa cells assessed as necrotic cells at 5 uM after 48 hrs by annexin-V-FITC/propidium iodide staining based flow cytometry (reference value: 0.693%); type: functional
[28] = target: T1, Protein deacetylase HDAC6 (Homo sapiens) (UniProt Q9UBN7); assay: Inhibition of HDAC6 in human A549 cells assessed as increase in acetylated tubulin expression at 5 uM incubated for 12 hrs by DAPI staining based immunofluorescence microscopy; type: cell-based
T1 sequence (whole entry): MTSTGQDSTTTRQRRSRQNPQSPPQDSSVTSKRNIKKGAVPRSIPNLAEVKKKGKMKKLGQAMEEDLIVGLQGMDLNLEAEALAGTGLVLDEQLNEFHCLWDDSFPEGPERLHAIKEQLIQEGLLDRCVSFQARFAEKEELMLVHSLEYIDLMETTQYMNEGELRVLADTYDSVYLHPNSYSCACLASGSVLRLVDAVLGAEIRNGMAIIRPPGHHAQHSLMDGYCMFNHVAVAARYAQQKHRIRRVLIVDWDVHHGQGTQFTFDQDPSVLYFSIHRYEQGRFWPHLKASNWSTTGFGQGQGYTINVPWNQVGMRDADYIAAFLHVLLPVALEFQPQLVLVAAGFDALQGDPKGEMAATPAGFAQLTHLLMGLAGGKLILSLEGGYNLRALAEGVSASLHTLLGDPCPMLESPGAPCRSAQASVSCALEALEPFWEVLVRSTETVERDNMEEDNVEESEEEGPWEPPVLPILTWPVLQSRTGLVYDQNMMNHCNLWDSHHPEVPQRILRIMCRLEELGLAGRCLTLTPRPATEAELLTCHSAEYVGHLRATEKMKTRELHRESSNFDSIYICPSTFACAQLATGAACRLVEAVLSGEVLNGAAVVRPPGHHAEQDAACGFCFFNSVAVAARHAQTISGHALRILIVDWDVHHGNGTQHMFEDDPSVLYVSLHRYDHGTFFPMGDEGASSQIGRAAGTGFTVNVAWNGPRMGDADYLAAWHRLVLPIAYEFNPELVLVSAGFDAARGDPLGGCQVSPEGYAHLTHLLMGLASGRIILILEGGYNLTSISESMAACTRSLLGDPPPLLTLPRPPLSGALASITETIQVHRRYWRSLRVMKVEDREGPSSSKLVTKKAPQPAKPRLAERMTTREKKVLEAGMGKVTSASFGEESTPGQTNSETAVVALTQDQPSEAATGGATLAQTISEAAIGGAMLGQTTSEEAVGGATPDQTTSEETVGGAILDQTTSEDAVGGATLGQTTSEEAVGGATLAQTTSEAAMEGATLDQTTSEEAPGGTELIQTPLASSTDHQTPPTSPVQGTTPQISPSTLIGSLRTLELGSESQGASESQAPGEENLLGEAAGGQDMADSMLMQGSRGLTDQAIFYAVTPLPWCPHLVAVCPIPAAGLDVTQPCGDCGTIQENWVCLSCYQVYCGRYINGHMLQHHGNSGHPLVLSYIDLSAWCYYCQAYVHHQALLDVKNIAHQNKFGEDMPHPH

[29] = Half life in artificial gastric fluid; type: ADME
[30] = Half life in artificial intestinal fluid; type: ADME
[31] = Half life in mouse plasma; type: ADME, cell-free
[32] = Half life in mouse microsomes; type: ADME, Microsome
[33] = Elimination half life in po dosed patient plasma by HPLC/MS analysis; type: ADME, organism-based; conditions: human, read-out: beta t1/2 (converted)
[34] = Homo sapiens, HeLa, 48 h, read-out: Activity

IC50 [1]: 59.9 µM | IC50 [2]: 14.6 µM | IC50 [3]: 11.9 µM | IC50 [4]: 43.8 µM | IC50 [5]: 3.32 µM | IC50 [6]: 3.42 µM | IC50 [7]: 5.79 µM | IC50 [8]: 4.05 µM | IC50 [9]: 4.25 µM | IC50 [13]: 84.2 µM | IC50 [14]: 56.8 µM | IC50 [15]: 2.49 µM | inhibition [28]: inactive | half-life [29]: > 24 h | half-life [30]: > 24 h | half-life [31]: 10 h | half-life [32]: 2.62 h | half-life [33]: 9 h
SMILES: Nc1ccccc1NC(=O)c1ccc(CNc2nccc(-c3cccnc3)n2)cc1 [MOCETINOSTAT]
IC50 [10]: 29.7 µM | IC50 [11]: 1.24 µM | IC50 [12]: 3.51 µM | viability at 1.25 µM [16, 34]: 87.1% | Activity [17]: 3.9% | Activity [18]: 8.23% | Activity [19]: 0.78% | viability at 2.5 µM [20, 34]: 84.5% | Activity [21]: 9.13% | Activity [22]: 5.98% | Activity [23]: 0.437% | viability at 5 µM [24, 34]: 74.6% | Activity [25]: 12.5% | Activity [26]: 11.6% | Activity [27]: 1.33%

half-life [30]: > 24 h | half-life [31]: 3 h | half-life [32]: 1.33 h
SMILES: O=C(CCCCCCC(=O)Nc1ccccc1)NO [VORINOSTAT]
Activity [16]: 85.1% | Activity [17]: 4.1% | Activity [18]: 10.2% | Activity [19]: 0.654% | Activity [20]: 77.4% | Activity [21]: 6.56% | Activity [22]: 15.1% | Activity [23]: 0.957% | Activity [24]: 83.9% | Activity [25]: 7.84% | Activity [26]: 7.6% | Activity [27]: 0.61%
